Data as given in patent US20110144079A1, “ANTIMICROBIAL SYSTEM” (priority 2008, published 2011).
Like-named read-outs stand apart in the source and are kept apart here. Marks after values point to notes of the source that are not given here.

Experiments:
Assay in all cases: Broth microdilution MIC/MBC
MRSA = assay type: cell-based, methicillin-resistant S. aureus; details: Staphylococcus aureus; for MBC: 99.9% killing; for MIC: 24 h at 37° C.
Protocol: Broth microdilution tests were performed according to NCCLS guidelines. Serial two-fold dilutions of each imidazolium salt (from an original working solution which had been 0.22 μm sterile filtered) in Mueller-Hinton Broth (MHB) (100 μl) were prepared in 96-well micro-titre plates over the range 0.0000625-1% w/v. The inoculum to be tested was prepared by adjusting the turbidity of an actively overnight growing broth culture in MHB to an optical density at 550 nm equivalent to 1×10^8 CFU/ml. The suspension was further diluted to provide a final inoculum density of 2×10^5 CFU/ml in MHB as verified by total viable count. The inoculum to be tested (100 μl, 2×10^5 CFU ml^−1) was added to each well of the microdilution trays which were incubated aerobically for 24 h at 37° C. Positive and negative growth controls were included in every assay (6 replicates). After determining the MICs, minimum bactericidal concentrations (MBCs) were determined by spreading 20 μl of suspension from wells showing no growth onto MHA plates, which were then incubated for 24 h and examined for 99.9% killing.

S. aureus ATCC 29213 = assay type: cell-based; details: Staphylococcus aureus, ATCC29213; for MBC: S. aureus ATCC 29213, 99.9% killing; for MIC: S. aureus ATCC 29213, 24 h at 37° C.
Summary of the method: (§1)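 Cultures grown overnight in MHB were standardised by OD550 to 1×10^8 CFU/ml, then diluted to a final 2×10^5 CFU/ml. This inoculum was added to imidazolium salt dilutions spanning 0.0000625–1% w/v in MHB and incubated aerobically for 24 h at 37 °C. Wells without growth were plated on MHA for 24 h to find the MBC.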

[1] = tested on: S. epidermidis ATCC 12228; assay type: cell-based; details: Staphylococcus epidermidis, ATCC12228; for MBC: S. epidermidis ATCC 12228, 99.9% killing; for MIC: S. epidermidis ATCC 12228, 24 h at 37° C.
Summary of the method: as §1

B. cenocepacia J2315 = assay type: cell-based; details: Burkholderia cenocepacia; for MBC: B. cenocepacia J2315, 99.9% killing; for MIC: B. cenocepacia J2315, 24 h at 37° C.
Summary of the method: as §1

E-MRSA 15 = assay type: cell-based; details: for MBC: E-MRSA 15, 99.9% killing; for MIC: E-MRSA 15, 24 h at 37° C.
Summary of the method: as §1

P. aeruginosa PA01 = assay type: cell-based; details: for MIC: P. aeruginosa PA01, 24 h at 37° C.; for MBC: P. aeruginosa PA01, 99.9% killing
Summary of the method: as §1

K. aerogenes NCTC 7427 = assay type: cell-based; details: Klebsiella aerogenes, NCTC7427; for MBC: K. aerogenes NCTC 7427, 99.9% killing; for MIC: K. aerogenes NCTC 7427, 24 h at 37° C.
Summary of the method: as §1

C. tropicalis NCTC 7393 = assay type: cell-based; details: Candida tropicalis, NCTC7393; for MBC: C. tropicalis NCTC 7393, 99.9% killing; for MIC: C. tropicalis NCTC 7393, 24 h at 37° C.
Summary of the method: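 Two-fold serial dilutions of imidazolium salts (0.0000625–1% w/v) in Mueller-Hinton broth were inoculated at a final 2×10^5 CFU/ml and incubated aerobically 24 h at 37 °C, per NCCLS. MIC was read as no visible growth; MBC came from subculturing clear wells onto MHA for 24 h, scoring 99.9% killing.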

[2] = tested on: S. epidermidis ATCC 35984; assay type: cell-based; details: for MIC: S. epidermidis ATCC 35984, 24 h at 37° C.; for MBC: ATCC35984, S. epidermidis ATCC 35984, 99.9% killing
Summary of the method: as §1

E. coli NCTC 8196 = assay type: cell-based; details: Escherichia coli, NCTC8196; for MBC: E. coli NCTC 8196, 99.9% killing; for MIC: E. coli NCTC 8196, 24 h at 37° C.
Summary of the method: as §1

[3] = Pseudomonas aeruginosa, PA01, 24 h, read-out: MIC
[4] = Staphylococcus epidermidis, ATCC35984, 24 h

Work on CCCCCCCCCCCCn1cc[n+](C)c1.[Cl-] [C12MIMCl, 1-dodecyl-3-methylimidazolium chloride] yielded an MBC (MRSA) of 290 µM, an MIC (MRSA) of 36 µM and an MBC (S. aureus ATCC 29213) of 36 µM. For the same compound, the MIC (S. aureus ATCC 29213) was 18 µM, the MBC [1] was 145 µM and the MIC [1] was 36 µM. It also gave an MBC (B. cenocepacia J2315) of 580 µM, an MIC (B. cenocepacia J2315) of 290 µM and an MBC (E-MRSA 15) of 73 µM. The MIC (E-MRSA 15) was 18 µM, the MIC (P. aeruginosa PA01; [3]) was 580 µM and the MBC (P. aeruginosa PA01; Pseudomonas aeruginosa) was 1160 µM. It also gave an MBC (K. aerogenes NCTC 7427) of 145 µM, an MIC (K. aerogenes NCTC 7427) of 73 µM and an MBC (C. tropicalis NCTC 7393) of 73 µM. It also gave an MIC (C. tropicalis NCTC 7393) of 73 µM, an MIC [2, 4] of 36 µM and an MBC ([2]; Staphylococcus epidermidis) of 73 µM. For the same compound, the MBC (E. coli NCTC 8196) was 73 µM and the MIC (E. coli NCTC 8196) was 73 µM.

Work on CCCCCCCCCCCCCCn1cc[n+](C)c1.[Cl-] [C14MIMCl, 1-tetradecyl-3-methylimidazolium chloride] yielded an MBC (MRSA) of 66 µM, an MIC (MRSA) of 16 µM and an MBC (S. aureus ATCC 29213) of 66 µM. For the same compound, the MIC (S. aureus ATCC 29213) was 16 µM, the MBC [1] was 33 µM and the MIC [1] was 7.7 µM. For the same compound, the MBC (B. cenocepacia J2315) was 264 µM, the MIC (B. cenocepacia J2315) was 132 µM and the MBC (E-MRSA 15) was 66 µM. For the same compound, the MIC (E-MRSA 15) was 16 µM, the MIC (P. aeruginosa PA01; [3]) was 264 µM and the MBC (P. aeruginosa PA01; Pseudomonas aeruginosa) was 264 µM. It also gave an MBC (K. aerogenes NCTC 7427) of 66 µM, an MIC (K. aerogenes NCTC 7427) of 33 µM and an MBC (C. tropicalis NCTC 7393) of 132 µM. It also gave an MIC (C. tropicalis NCTC 7393) of 66 µM, an MIC ([2]; listed as 1-alkyl-3-methylimidazolium chlorides 14) of 7.75 µM and an MIC [2, 4] of 7.7 µM. The MBC ([2]; Staphylococcus epidermidis) was 33 µM, the MBC (E. coli NCTC 8196) was 33 µM and the MIC (E. coli NCTC 8196) was 33 µM.

With CCCCCCCCCCn1cc[n+](C)c1.[Cl-] [C10MIMCl, 1-decyl-3-methylimidazolium chloride] the MBC (MRSA) was 643 µM, the MIC (MRSA) was 160 µM and the MBC (S. aureus ATCC 29213) was 643 µM. The MIC (S. aureus ATCC 29213) was 40 µM, the MBC [1] was 644 µM and the MIC [1] was 40 µM. The MBC (B. cenocepacia J2315) was 1290 µM, the MIC (B. cenocepacia J2315) was 1290 µM and the MBC (E-MRSA 15) was 321 µM. The MIC (E-MRSA 15) was 40 µM, the MIC (P. aeruginosa PA01; listed as 1-alkyl-3-methylimidazolium chlorides 10) was 2415* μM and the MIC (P. aeruginosa PA01; [3]) was over 1290 µM. It also gave an MBC (P. aeruginosa PA01; Pseudomonas aeruginosa) of over 1290 µM, an MBC (K. aerogenes NCTC 7427) of 1290 µM and an MIC (K. aerogenes NCTC 7427) of 643 µM. The MBC (C. tropicalis NCTC 7393) was 321 µM, the MIC (C. tropicalis NCTC 7393) was 321 µM and the MIC [2, 4] was 40 µM. The MBC ([2]; Staphylococcus epidermidis) was 160 µM, the MBC (E. coli NCTC 8196) was 1290 µM and the MIC (E. coli NCTC 8196) was 321 µM.
